Values quoted from earlier work as cited in patent US8884020B2, “Indole compounds” (Ironwood Pharmaceuticals, Inc., priority 2006, dated 2014).

System: prostaglandin synthesis
Conditions: Shen et al. 1977

SMILES: Cc1c(CC(=O)O)c2cc(O)ccc2n1C(=O)c1ccc(Cl)cc1 [desmethyl metabolite, (1-(4-chlorobenzoyl)-5-hydroxy-2-methyl-1H-indol-3-yl]acetic acid]
- ability to inhibit prostaglandin synthesis: some ability to inhibit prostaglandin synthesis
